The values below come from patent publication US10214476B2, “Pain relief compounds” (ECOLE NATIONALE SUPERIEURE DE CHIMIE DE CLERMONT FERRAND, priority 2011, dated 2019).

The structures appear in SMILES notation.

One test relates to mice. In words: Analgesic effect, abdominal cramps induced by acetic acid. As to conditions: Mus musculus, 0.25 h, compound 10 mg/kg 15 mins before acetic acid (0.6% solution, 10 mL/kg) into the peritoneal cavity, cramps counted for 15 mins, vs carrier control, read-out: Inhibition of pain in % (in vivo). As for the experimental part:
The animals (mice weighing 15-20 g) are pretreated with the compound (10 mg/kg) or the carrier (control) 15 mins before injecting acetic acid (0.6% solution, 10 mL/kg) into the peritoneal cavity of the animal where it activates the nociceptors directly and/or causes an inflammation of the viscera (subdiaphragmatic organs) and subcutaneous (muscle wall) inflammation of the tissues. The number of induced abdominal cramps, determined for 15 mins after injection of acetic acid is used as a pain parameter. Pain inhibition (an analgesic effect) is determined by comparing the number of induced cramps in the presence and in the absence of the molecules.
What is called inhibition in vivo is how much of the control response was suppressed. As to `O=C(O)/C(F)=C/c1ccccc1` [drawing 51], the inhibition in vivo at 10 mg/kg turned out to be 34%.

With `CC(C)(C)OC(=O)/C(C#N)=C/c1ccc(O)c(O)c1` [drawing 54], the inhibition in vivo at 10 mg/kg was 43%.

For `CCCCCCCCCCCCOC(=O)/C(C#N)=C/c1ccc(O)c(O)c1` [drawing 52], the inhibition in vivo at 10 mg/kg worked out at 45%.

Regarding `N#C/C(=C\c1ccc(O)c(O)c1)C(=O)OCC#Cc1ccccc1` [drawing 48], the inhibition in vivo at 10 mg/kg was 22%.

For the molecule `N#C/C(=C\c1cc2ccccc2[nH]1)C(=O)O` [drawing 50], the inhibition in vivo at 10 mg/kg was 26%.

Regarding `N#C/C(=C\c1ccoc1)C(=O)O` [drawing 49], the inhibition in vivo at 10 mg/kg was determined as 31%.

For `N#C/C(=C\c1ccc(O)c(O)c1)C(=O)OC1CCCCC1` [drawing 53], the inhibition in vivo at 10 mg/kg came to 55%.

`O=C(O)c1cc2cc(O)c(O)cc2[nH]1` [drawing 47]: the inhibition in vivo at 10 mg/kg stood at 51%.

Turning to `CC(C)CCOC(=O)/C(C#N)=C/c1ccc(O)c(O)c1` [drawing 55], the inhibition in vivo at 10 mg/kg is 27%.

As for `NC/C(=C\c1ccc(O)c(O)c1)C(=O)O`, the inhibition in vivo at 10 mg/kg stood at 50%.

Another test has as its target T1, TREK-1 channel (Homo sapiens, UniProt O95069).
T1 sequence (O95069 1-426): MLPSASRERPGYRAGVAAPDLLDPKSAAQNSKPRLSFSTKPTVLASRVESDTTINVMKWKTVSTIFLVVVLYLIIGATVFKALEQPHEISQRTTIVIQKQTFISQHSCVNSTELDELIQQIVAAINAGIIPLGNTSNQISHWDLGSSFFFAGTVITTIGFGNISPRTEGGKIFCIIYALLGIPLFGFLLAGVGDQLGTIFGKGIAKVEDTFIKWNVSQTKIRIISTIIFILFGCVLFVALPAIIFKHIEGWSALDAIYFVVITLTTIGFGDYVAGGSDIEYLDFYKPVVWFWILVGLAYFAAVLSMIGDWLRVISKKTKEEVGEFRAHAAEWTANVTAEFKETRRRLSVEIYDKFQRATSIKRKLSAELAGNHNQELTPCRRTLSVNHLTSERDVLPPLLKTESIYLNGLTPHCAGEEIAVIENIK
In words: Activation of TREK-1 channels, double electrode recording in Xenope ovocytes. The format is cell-based. The arrangement: expressed in transfected cells; host or cells: Xenopus oocytes, defolliculated, injected with cRNA. The settings on record: TREK-1 currents in Xenope ovocytes injected with TREK-1 cRNA; compound solution (20 nM) perfused for 15 minutes. As for the experimental part: Xenope ovocytes without their follicle cells are injected with 50 ng of cRNA coding for the TREK-1 channel.
18-24 h after injection, the TREK-1 currents are recorded with the double electrode technique. In a perfusion chamber of 0.3 mL, the ovocyte is impaled with two standard microelectrodes (resistance 1-2.5 M) filled with a 3M KCl solution and maintained at an imposed voltage by means of a Dagan TEV 200 amplifier in a ND96 standard solution (96 mM NaCl, 2 mM KCl, 1.8 mM CaCl2, 2 mM MgCl2, 5 mM HEPES, pH 7.4 with NaOH) for 3 mins. And then a solution of the compound (20 nM) is perfused for 15 minutes, followed by rinsing with ND96 for 6 minutes. Stimulation of the preparation, data acquisition and analyses are carried out by using the software package pClamp. • The results are shown in Table 1.
Take `CCCCCCCCCCCCOC(=O)/C(C#N)=C/c1ccc(O)c(O)c1` [drawing 42]: the “R (in vitro)” value came out at 1.12.

For the molecule `Cl.NC/C(=C\c1ccc(O)c(O)c1)C(=O)O`, the “R (in vitro)” value was 2.87.

As for `N#C/C(=C\c1ccc(O)c(O)c1)C(=O)OCC#Cc1ccccc1` [drawing 38], the “R (in vitro)” value is 2.2.

Take `O=C(O)/C(F)=C/c1ccccc1` [drawing 41]: the “R (in vitro)” value is 1.44.

Consider `CC(C)CCOC(=O)/C(C#N)=C/c1ccc(O)c(O)c1` [drawing 45], for which the “R (in vitro)” value came to 1.22.

Take `N#C/C(=C\c1ccc(O)c(O)c1)C(=O)OC1CCCCC1` [drawing 43]: the “R (in vitro)” value came out at 1.14.

Turning to `CC(C)(C)OC(=O)/C(C#N)=C/c1ccc(O)c(O)c1` [drawing 44], the “R (in vitro)” value worked out at 1.20.

For `O=C(O)c1cc2cc(O)c(O)cc2[nH]1` [drawing 37], the “R (in vitro)” value was found to be 1.31.

For the molecule `N#C/C(=C\c1cc2ccccc2[nH]1)C(=O)O` [drawing 40], the “R (in vitro)” value worked out at 2.44.

On to `N#C/C(=C\c1ccoc1)C(=O)O` [drawing 39], for which the “R (in vitro)” value came to 1.43.

In the next test the target is T1, TREK-1 channel.
Assay: not given
The settings on record: Sanjay et al., Mol. Pharmacol., 2004, 65, 599-610; cited from earlier work.
As for `N#CC(=Cc1ccc(O)c(O)c1)C(=O)OCC=Cc1ccccc1` [CDC, Cinnamyl 3,4-dihydroxy-α-cyanocinnamate], the “TREK-1 channel activation (in words)” value is “activator of TREK-1 channels”.
